Test results: patent publication US20250367145A1, “COMPOUNDS FOR USE IN THE TREATMENT OF KIDNEY DISEASES” (Universitätsmedizin Greifswald, priority 2022, published 2025)

Assays:
[1] = test system: Tg(nphs2:GAL4-VP16); Tg(UAS:Eco.nfsB-mCherry) zebrafish larvae; assay: Edema progression in zebrafish larvae after MTZ podocyte injury (FSGS model), edema types 1-4; assay type: in vivo; conditions: for edema progression/formation at 10 μM: 10 μM compound in conjunction with MTZ, compared to MTZ group; for edema progression/formation at 10 μM / most effective concentration for prevention of proteinuric edema: until 8 dpf; for lethality at 100 μM: 100 μM compound in conjunction with MTZ (2 days); for effect in terms of proteinuric edema progression/formation: injury model, in conjunction with MTZ; for progression of podocyte injury induced in the disease model: zebrafish larvae model of FSGS, effects concentration-dependent; for most effective concentration for prevention of proteinuric edema: different concentrations in conjunction with MTZ
Description: The results are depicted in FIG. 4. A treatment for 48 hours from 4 to 6 dpf with MTZ induces edema formation of four different severities in this strain, scaling from type 1=no edema to type 4=severe edema (FIG. 3). Edema severity of larvae treated with DMSO, MTZ and MTZ plus 1 μM, 10 μM or 100 μM belinostat was categorized at 6, 7 and 8 dpf (FIG. 4). […] Co-treatment with MTZ and 100 μM belinostat induced edema formation in 15% of larvae with 0% type 4 edema in contrast to 60% edema with 31% type 4 edema in the MTZ group. At 7 dpf, progression of edema formation was decelerated in all three groups for all three types of edema that received belinostat, again in a dose-dependent manner. MTZ caused type 4 edema in 56.4% of larvae at 7 dpf, contrary to 1.9% edema in the MTZ+100 μM belinostat group. […] 83.6% of larvae treated with MTZ developed edema with 58.2% showing type 4 edema. […] 10 μM belinostat+MTZ induced edema 80% of larvae with 34.5% type 4 edema. Co-treatment of MTZ with 100 μM belinostat caused edema formation in 64.2% of larvae with 28.3% type 4 edema (FIG. 4).
FIG. 3 depicts the different degrees of podocyte injury progression: 1: no edema, 2: slight edema, 3: moderate edema, 4: severe edema. Black arrowheads show periocular and blank arrowheads depict abdominal edema. Scale bar: 500 μm.
FIG. 4 depicts the results of Example 3, measuring the edema progression in larvae that were treated with different concentrations of belinostat in conjunction with MTZ. Edema progression was measured according to the categories of in larvae until 8 dpf following MTZ injury with various concentration of belinostat (DMSO n=52, MTZ n=55, MTZ+1 μM belinostat n=52, MTZ+10 μM belinostat n=55, MTZ+100 μM belinostat n=53).

[2] = test system: podocytes / glomerular filtration barrier of MTZ-injured zebrafish larvae; assay: Zebrafish larvae podocyte injury screening: vascular eGFP (proteinuria) and glomerular mCherry (podocyte depletion) fluorescence ratios; conditions: for podocyte protection in drug library screen: co-treatment 80 μM MTZ + 100 μM compound, 24 h from 4 to 5 dpf, 12 larvae per compound
Description: Groups of 12 larvae from one clutch were distributed into a 24-well plate (#662160 Greiner, Frickenhausen, Germany). For each clutch, 12 larvae were treated with 0.2% DMSO in E3 as negative control and 12 larvae were treated with 80 μM Metronidazole (MTZ) in DMSO in E3 as injury control and comparison group. The Fraunhofer ScreeningPort IME provided an epigenetic drug library which was used for this screening (Table 1). […] The treatment volume was 400 μl for each well with 12 larvae, the wells were sealed with Adhesive Clear PCR Seal (#600208, Biozym Scientific GMBH, Hessisch-Oldendorf) in order to prevent evaporation and plates were incubated at 28.5° C., wrapped in aluminum foil to prevent effects of light. After 24 hours, compounds were washed out in three changes of 0.5×E3.
After washout at 5 dpf, E3 in the 12-well plate was replaced with E3 containing 0.4 mg/ml tricaine. Larvae were then individually transferred into wells of a 96-well plate (#644101, Greiner) which was prepared with custom agarose molds. For the molds, 45 μl of 0.7% boiling hot agarose (Biozym LE agarose) were transferred with a multichannel pipette into each well. After 3 min cooldown, a custom 3D printed orientation tool (Wittbrodt, Jonas N., Urban Liebel, and Jochen Gehrig. “Generation of orientation tools for automated zebrafish screening assays using desktop 3D printing.” BMC biotechnology 14.1 (2014): 1-6) was inserted into the agarose which produced cavities for orientation. Each larva was transferred with 100 μl tricaine containing E3 into the single wells of the 96-well plate (Row A was always 12×DMSO, Row B was always 12×MTZ, Row C-H were compounds+MTZ) and was then oriented laterally in the molds with a short piece of fishing line glued to a bend injection needle under the stereomicroscope manually with special attention to a flat caudal region.
Image acquisition for the screening was performed with an Imaging Machine ([…] Imaging GmbH, Heidelberg, Germany). […] Overview images of each laterally oriented larva were obtained with a 2× objective (40% LED intensity, 30 ms integration). For each larva, a region of interest (ROI) at the tail region caudal of the cloaca was selected with the Acquifer PlateViewer (V1.7.1, […]) for the 10× objective in order to image the blood flow and vasculature. After creating custom modificated imaging scripts via FIJI (Schindelin, Johannes, et al. “Fiji: an open-source platform for biological-image analysis.” Nature methods 9.7 (2012): 676-682), 10 consecutive brightfield frames at a framerate of 33 Hz were acquired (10× objective, 100% LED intensity, 30 ms integration) followed by one frame at 470 nm (10× objective, 50% LED intensity, 50 ms integration). […] The focal plane for both acquisitions was detected with a built-in two-step software autofocus (10× objective, 2×2 binning, 10% LED intensity, 10 ms integration, first step: 31 slices with 50 μm distance, second step: 10 slices with 10 μm slice distance, brightfield for the caudal vasculature, 555 nm for glomerular mCherry).
Following image acquisition, tricaine-containing E3 was washed out two times of each well and replaced by 150 μl E3. […] In this way, two values for the vascular eGFP fluorescence and two values for the glomerular mCherry fluorescence were obtained for each individual larva.

[3] = test system: wildtype (AB/TU strain) zebrafish larvae; assay: Toxicity of belinostat treatment on wildtype zebrafish larvae; assay type: in vivo; conditions: 250 μM belinostat, treated for 48 hours, at day 8
Description: Larvae were treated for 48 hours and edema as well as malformations were assessed until 8 dpf.

[4] = test system: Mice (C57BL/6); assay: NTS (nephrotoxic serum) induced glomerular injury in mice, plasma creatinine; assay type: in vivo, mouse; conditions: NTS with low dose belinostat (25 mg/kg) compared to NTS injury group
Description: Mice (C57BL/6) were treated with PBS (healthy control), NTS (nephrotoxic serum, injury control), NTS with low dose belinostat (25 mg/kg) and NTS with high dose belinostat (50 mg/kg).

[5] = 10 μM compound + 80 μM MTZ vs MTZ alone

CC(C)[C@H](C(=O)Nc1ccc(C(=O)NO)cc1)c1ccccc1 [AR-42, N-hydroxy-4-[[(2S)-3-methyl-2-phenylbutanoyl]amino]benzamide]
edema progression/formation at 10 μM [1]: able to prevent proteinuric edema
lethality at 100 μM [1]: lethal
effect in terms of proteinuric edema progression/formation [1]: protective effect
progression of podocyte injury induced in the disease model [1]: significantly slowed the progression of podocyte injury

C#Cc1cccc(Nc2ncnc3cc(OC)c(OCCCCCCC(=O)NO)cc23)c1 [CUDC-101, 7-[4-(3-ethynylanilino)-7-methoxyquinazolin-6-yl]oxy-N-hydroxyheptanamide]
most effective concentration for prevention of proteinuric edema [1]: 10 µM
effect in terms of proteinuric edema progression/formation [1]: protective effect
progression of podocyte injury induced in the disease model [1]: significantly slowed the progression of podocyte injury

O=C(/C=C/c1ccc(CN(CCO)CCc2c[nH]c3ccccc23)cc1)NO [Dacinostat, (E)-N-hydroxy-3-[4-[[2-hydroxyethyl-[2-(1H-indol-3-yl)ethyl]amino]methyl]phenyl]prop-2-enamide]
edema progression/formation at 10 μM [1]: successfully prevented edema formation
lethality at 100 μM [1]: lethal
effect in terms of proteinuric edema progression/formation [1]: protective effect
progression of podocyte injury induced in the disease model [1]: significantly slowed the progression of podocyte injury

O=C(CCCCCN1C(=O)c2cccc3cccc(c23)C1=O)NO [Scriptaid, 6-(1,3-Dioxo-1H,3H-benzo[de]isoquinolin-2-yl)-N-hydroxyhexanamide]
edema progression/formation at 10 μM [1]: successfully prevented edema progression
lethality at 100 μM [1]: in the lethal range
effect in terms of proteinuric edema progression/formation [1]: protective effect
progression of podocyte injury induced in the disease model [1]: significantly slowed the progression of podocyte injury

O=C(CCCCCCC(=O)Nc1ccccc1)NO [Vorinostat, N′-hydroxy-N-phenyloctanediamide]
formation of moderate (type 3) edema ([1]; 100 μM compound in conjunction with MTZ, 6 dpf): able to prevent formation of moderate edema
effect in terms of proteinuric edema progression/formation [1]: protective effect
progression of podocyte injury induced in the disease model [1]: significantly slowed the progression of podocyte injury

O=C(/C=C/c1cccc(S(=O)(=O)Nc2ccccc2)c1)NO [belinostat, (2E)-N-hydroxy-3-[3-(phenylsulfamoyl)phenyl]prop-2-enamide]
loss of podocyte mCherry fluorescence (glomerular fluorescence ratio 6 dpf/5 dpf) [2, 5]: significantly reduced loss of podocyte mCherry fluorescence
renal leakage of 78 kDa VDP-eGFP through the glomerular filtration barrier (vascular eGFP fluorescence ratio 6 dpf/5 dpf) [2, 5]: could prevent the renal leakage
harmful effect on the glomerular filtration barrier or podocyte vitality ([2]; 10 μM compound alone, without MTZ injury): no harmful effect
podocyte protection in drug library screen [2]: podocyte-protective
larvae with type 4 edema ([1]; MTZ + 1 μM belinostat, 8 dpf (MTZ group 58.2%)): 44.2%
larvae with edema formation ([1]; MTZ + 1 μM belinostat, 8 dpf (MTZ group 83.6%)): 80.8%
larvae with type 4 edema ([1]; MTZ + 10 μM belinostat, 8 dpf (MTZ group 58.2%)): 34.5%
larvae with edema formation ([1]; MTZ + 10 μM belinostat, 8 dpf (MTZ group 83.6%)): 80%
larvae with type 4 edema ([1]; MTZ + 100 μM belinostat, 6 dpf (MTZ group 31%)): 0%
larvae with edema formation ([1]; MTZ + 100 μM belinostat, 6 dpf (MTZ group 60%)): 15%
larvae with edema (contrasted with type 4 edema of MTZ group) ([1]; MTZ + 100 μM belinostat, 7 dpf (MTZ group type 4 edema 56.4%)): 1.9%
larvae with type 4 edema ([1]; MTZ + 100 μM belinostat, 8 dpf (MTZ group 58.2%)): 28.3%
larvae with edema formation ([1]; MTZ + 100 μM belinostat, 8 dpf (MTZ group 83.6%)): 64.2%
progression of edema formation ([1]; MTZ + 1, 10 or 100 μM belinostat, 7 dpf, dose-dependent): decelerated
number of larvae with type 3 and 4 edema ([1]; MTZ + 1, 10 or 100 μM belinostat, after washout at 6 dpf, dose-dependent): reduced number of larvae with type 3 and 4 edema
edema progression with continuous treatment ([1]; MTZ from 4-6 dpf and continuously belinostat until 8 dpf, vs belinostat until day 6): ameliorated most
delay in edema formation ([1]; belinostat treatment groups, 8 dpf): stayed consistent
progression of podocyte injury induced in the disease model [1]: significantly slowed the progression of podocyte injury
larvae for which treatment is lethal [3]: 35%
plasma creatinine concentration [4]: reduce plasma creatine concentrations significantly

O=C(/C=C/C#Cc1cccc(NS(=O)(=O)c2ccccc2)c1)NO [oxamflatin, 5-[3-(benzenesulfonamido)phenyl]-N-hydroxypent-2-en-4-ynamide]
podocyte protection in drug library screen [2]: podocyte-protective
most effective concentration for prevention of proteinuric edema [1]: 100 µM
progression of podocyte injury induced in the disease model [1]: significantly slowed the progression of podocyte injury
